Test results: patent US20190040584A1, “Use of DIPA-Esterquat Debonder For Tissue And Fluff Pulp Manufacturing” (Evonik Degussa GmbH, priority 2016, published 2019)

Columns and labels:
Fish = Fish aqua tox (OECD 203); type: in vivo
Daphnia magna = conditions: in vivo

dialkyldimethyl ammonium chloride [Adogen 442]
Fish; aqua tox (203); 96 h; LC50 (Fish): 10.1 µg/mL
Aquatoxicity, invertebrates, Daphnia magna; (202) 48 h; EC50 (Daphnia magna): 0.19 µg/mL
